Reference: patent publication US20150141411A1, “SUBSTITUTED 3,4-DIHYDRO-2H-PYRIDO[1,2-A]PYRAZINE-1,6-DIONE DERIVATIVES USEFUL FOR THE TREATMENT OF (INTER ALIA) ALZHEIMER'S DISEASE” (Janssen Pharmaceuticals, Inc., priority 2012, published 2015)

How the values were obtained:
Aβ38 = test: In vivo efficacy: brain soluble Aβ38 in non-transgenic rodents (ELISA); details: Mus musculus, dose 30 mg/kg oral dosing, brain soluble fraction, animals sacrificed after 4 h, untreated animals (Ctrl) set at 100, read-out: Aβ38 (% vs Ctrl)_Mean
From the text: To determine whether acute administration of an Aβ38 increasing agents would increase Aβ38 levels in vivo, non-transgenic rodents, e.g. mice or rats were used. Animals treated with the Aβ38 increasing agents were examined and compared to those untreated or treated with vehicle and brain levels of soluble Aβ38 and total Aβ were quantitated by standard techniques, for example, using ELISA. Treatment periods varied from hours (h) to days and were adjusted based on the results of the Aβ38 increase once a time course of onset of effect could be established.
A typical protocol for measuring Aβ38 increase in vivo is shown but it is only one of many variations that could be used to optimize the levels of detectable Aβ. For example, Aβ38 increasing agents were formulated in 20% of Captisol® (a sulfobutyl ether of β-cyclodextrin) in water or 20% hydroxypropyl βcyclodextrin. The Aβ38 increasing agents were administered as a single oral dose or by any acceptable route of administration to overnight fasted animals. After 4 h, the animals were sacrificed and Aβ38 levels were analysed.
Blood was collected by decapitation and exsanguinations in EDTA-treated collection tubes. Blood was centrifuged at 1900 g for 10 minutes (min) at 4° C. and the plasma recovered and flash frozen for later analysis. The brain was removed from the cranium and hindbrain. The cerebellum was removed and the left and right hemisphere were separated. The left hemisphere was stored at −18° C. for quantitative analysis of test compound levels. The right hemisphere was rinsed with phosphate-buffered saline (PBS) buffer and immediately frozen on dry ice and stored at −80° C. until homogenization for biochemical assays.
Mouse brains from non-transgenic animals were resuspended in 8 volumes of 0.4% DEA (diethylamine)/50 mM NaCl containing protease inhibitors (Roche-11873580001 or 04693159001) per gram of tissue, e.g. for 0.158 g brain, add 1.264 ml of 0.4% DEA. All samples were homogenized in the FastPrep-24 system (MP Biomedicals) using lysing matrix D (MPBio #6913-100) at 6 m/s for 20 seconds. Homogenates were centrifuged at 221.300×g for 50 min. The resulting high speed supernatants were then transferred to fresh eppendorf tubes. Nine parts of supernatant were neutralized with 1 part 0.5 M Tris-HCl pH 6.8 and used to quantify Aβ total and Aβ38.
To quantify the amount of Aβtotal and Aβ38 in the soluble fraction of the brain homogenates, Enzyme-Linked-Immunosorbent-Assays were used. Briefly, the standards (a dilution of synthetic Aβ1-40 and Aβ1-38, ANASPEC) were prepared in 1.5 ml Eppendorf tube in Ultraculture, with final concentrations ranging from 10000 to 0.3 pg/ml. The samples and standards were co-incubated with HRPO-labelled N-terminal antibody for Aβ38 detection and with the biotinylated mid-domain antibody 4G8 for Aβtotal detection. 50 μl of conjugate/sample or conjugate/standards mixtures were then added to the antibody-coated plate (the capture antibodies selectively recognize the C-terminal end of Aβ38, antibody J&JPRD/Aβ38/5, for Aβ38 detection and the N-terminus of Aβ, antibody JRF/rAβ/2, for Aβtotal detection). The plate was allowed to incubate overnight at 4° C. in order to allow formation of the antibody-amyloid complex. Following this incubation and subsequent wash steps the ELISA for Aβ38 quantification was finished by addition of Quanta Blu fluorogenic peroxidase substrate according to the manufacturer's instructions (Pierce Corp., Rockford, Ill.). A reading was performed after 10 to 15 min (excitation 320 nm/emission 420 nm).
In this model a Aβ38 increase compared to untreated animals would be advantageous, in particular a Aβ38 increase with at least 10%, more in particular a Aβ38 increase with at least 20%.
The results are shown in Table 4 (dose 30 mg/kg oral dosing) (value for untreated animals as control (Ctrl) was set at 100): […]

Row | Structure (SMILES) | melting point | response vs control in vivo at 30 mg/kg (Aβ38)
1 | Cc1cn(-c2ccc3n(c2=O)C[C@@H](C)N(Cc2cccc(C(C)(C)C)c2)C3=O)cn1 [compound 23] | – | 132%
2 | Cc1cn(-c2ccc3n(c2=O)C[C@@H](C)N(CCc2cc(C(F)(F)F)cc(C(F)(F)F)c2)C3=O)cn1 [compound 50] | – | 110%
3 | Cc1cc(CN2C(=O)c3ccc(-n4cnc(C)c4)c(=O)n3C[C@H]2C)cc(C(F)(F)F)c1 [compound 59] | 167.7 °C | 126%
4 | Cc1cn(-c2ccc3n(c2=O)C[C@@H](C)N(Cc2ccc(Cl)c(C(F)(F)F)c2)C3=O)cn1 [compound 62] | – | 160%
5 | Cc1cn(-c2ccc3n(c2=O)C[C@@H](C)N(Cc2cc(Cl)cc(C(F)(F)F)c2)C3=O)cn1 [compound 63] | 180.4 °C | 133%
6 | Cc1cn(-c2ccc3n(c2=O)CCN(Cc2ccc(Cl)c(C(F)(F)F)c2)C3=O)cn1 [compound 65] | 195.1 °C | 132%
7 | Cc1cn(-c2ccc3n(c2=O)C[C@@H](C)N(Cc2cc(N4CCC(C)CC4)ccc2Cl)C3=O)cn1 [compound 80] | – | 118%
8 | Cc1cn(-c2ccc3n(c2=O)C[C@@H](C)N(Cc2cc(N4CCCC4)ccc2Cl)C3=O)cn1 [compound 82] | – | 120%
9 | Cc1cn(-c2ccc3n(c2=O)CCN(Cc2ccc(C)c(N4CCCCC4)c2)C3=O)cn1 [compound 99] | – | 92%
10 | C[C@@H]1Cn2c(ccc(-n3cnc(Cl)c3)c2=O)C(=O)N1Cc1cc(C(F)(F)F)cc(C(F)(F)F)c1 [compound 118] | 157.9 °C | –
11 | Cc1cn(-c2ccc3n(c2=O)C[C@@H](C)N(Cc2ccc(F)c(F)c2)C3=O)cn1 [compound 133] | 198.1 °C | –
12 | Cc1cn(-c2cc(F)c3n(c2=O)C[C@@H](C)N(Cc2cc(C(F)(F)F)cc(C(F)(F)F)c2)C3=O)cn1 [compound 158] | 137.1 °C | –

Further lines, with some results ahead:

Row | melting point | Structure (SMILES) | response vs control in vivo at 30 mg/kg (Aβ38)
13 | 203.8 °C | Cc1cn(-c2ccc3n(c2=O)CCN(C(C)c2cccc(Cl)c2Cl)C3=O)cn1 (single isomer, unassigned) [10a] | 85%
14 | 147.3 °C | Cc1cn(-c2ccc3n(c2=O)CC(C)N(C(C)c2cc(C(F)(F)F)cc(C(F)(F)F)c2)C3=O)cn1.Cl (single isomer, unassigned) [compound 111] | –
15 | 259 °C | Cc1cn(-c2ccc3n(c2=O)CC(C)N(C(C)c2cc(C(F)(F)F)cc(C(F)(F)F)c2)C3=O)cn1.Cl (single isomer, unassigned) [compound 112] | –
16 | 258 °C | Cc1cn(-c2ccc3n(c2=O)CCN(C(C)c2cn(C)c4cc(F)c(Cl)cc24)C3=O)cn1 (single isomer, unassigned) [compound 185] | –
17 | 263 °C | Cc1cn(-c2ccc3n(c2=O)CC(C)N(C(C)c2cn(C)c4cc(F)c(Cl)cc24)C3=O)cn1 (single isomer, unassigned) [compound 189] | –
18 | 263 °C | Cc1cn(-c2ccc3n(c2=O)CC(C)N(C(C)c2c[nH]c4c(F)cc(Cl)cc24)C3=O)cn1 (single isomer, unassigned) [compound 219] | –
19 | 203.6 °C | CCC1Cn2c(ccc(-n3cnc(C)c3)c2=O)C(=O)N1Cc1cc(C(F)(F)F)cc(C(F)(F)F)c1.Cl (centres unmarked) [compound 1] | 103%
20 | 185 °C | Cc1cn(-c2ccc3n(c2=O)C[C@@H](C)N(Cc2ccc(Cl)c(Cl)c2)C3=O)cn1 [compound 2] | 129%
21 | 176.6 °C | Cc1cn(-c2ccc3n(c2=O)CC(C)N(Cc2cc(C(F)(F)F)cc(C(F)(F)F)c2)C3=O)cn1 (centres unmarked) [compound 3] | 137%
22 | 165.6 °C | Cc1cn(-c2ccc3n(c2=O)CCN(Cc2cccc(-c4ccccc4)c2)C3=O)cn1 [compound 5] | 110%
23 | 175.4 °C | Cc1cn(-c2ccc3n(c2=O)CC(C)N(Cc2cc(OCC4CC4)cc(C(F)(F)F)c2)C3=O)cn1.Cl (centres unmarked) [compound 6] | 129%
24 | 290 °C | CCc1cn(-c2ccc3n(c2=O)CC(C)N(Cc2cc(C(F)(F)F)cc(C(F)(F)F)c2)C3=O)cn1.Cl (centres unmarked) [compound 7] | 80%
25 | 186.1 °C | Cc1cn(-c2ccc3n(c2=O)CCN(Cc2ccccc2C)C3=O)cn1 [compound 22] | 105%
26 | 145.6 °C | Cc1cn(-c2ccc3n(c2=O)C[C@@H](C)N(Cc2ccc(C(F)(F)F)c(C(F)(F)F)c2)C3=O)cn1 [compound 46] | 62%
